Assay: Contact Assay (percentage inhibition from fluorescence intensity)
Type: biochemical
Protocol: The percentage inhibition was calculated using the following equation:
[formula] where, Mean(BG) is the average value of the fluorescence intensity of the background wells and Mean(PC) is the average value of the fluorescence intensity of the positive control wells.
Table 4 provides the EC50 values of various compounds disclosed herein.

CC(C)(O)c1cc(Cc2cc(C(=O)NCc3n[nH]c4ccc(Cl)cc34)ccn2)cc2cc(Cl)cnc12 [Example 225, N-((5-chloro-1H-indazol-3-yl)methyl)-2-((3-chloro-8-(2-hydroxypropan-2-yl)quinolin-6-yl)methyl)isonicotinamide]
EC50: 100 to 1000 nM

O=C(NCc1cc2c(Cl)c[nH]c2cc1F)c1ccnc(Cc2ccc3ncc(C4CC4)cc3c2)c1 [Example 245, N-((3-chloro-6-fluoro-1H-indol-5-yl)methyl)-2-((3-cyclopropylquinolin-6-yl)methyl)isonicotinamide]
EC50: 100 to 1000 nM

Nc1nccc2cc(CNC(=O)c3ccnc(Cc4ccc5ncc(Cl)cc5c4)c3)c(F)cc12 [Example 180, N-((1-amino-7-fluoroisoquinolin-6-yl)methyl)-2-((3-chloroquinolin-6-yl)methyl)isonicotinamide]
EC50: 100 to 1000 nM

NC(=O)c1cc(Cc2cc(C(=O)NCc3cc4cc[nH]c4cc3F)ccn2)cc2cc(Cl)cnc12 [Example 66, 3-chloro-6-((4-(((6-fluoro-1H-indol-5-yl)methyl)carbamoyl)pyridin-2-yl)methyl)quinoline-8-carboxamide]
EC50: 100 to 1000 nM

Cc1ccc2ncc(Cc3cc(C(=O)NCc4c(C)cc(N)nc4C)ccn3)cc2c1 [Example 114, N-((6-amino-2,4-dimethylpyridin-3-yl)methyl)-2-((6-methylquinolin-3-yl)methyl)isonicotinamide]
EC50: ≤ 100 nM

Cc1nc(N)ccc1CNC(=O)c1ccnc(Cc2cc(F)c3ncc(Cl)cc3c2)c1 [Example 91, N-(6-amino-2-methyl-pyridin-3-ylmethyl)-2-(3-chloro-8-fluoro-quinolin-6-ylmethyl)-isonicotinamide]
EC50: ≤ 100 nM

Cc1cnc2c(S(N)(=O)=O)cc(Cc3cc(C(=O)NCc4n[nH]c5ccc(Cl)cc45)ccn3)cc2c1 [Example 288, N-((5-chloro-1H-indazol-3-yl)methyl)-2-((3-methyl-8-sulfamoylquinolin-6-yl)methyl)isonicotinamide]
EC50: 100 to 1000 nM

Nc1nccc2c(F)c(CNC(=O)c3ccnc(Cc4ccc5ncc(Cl)cc5c4)c3)ccc12 [Example 178, N-((1-amino-5-fluoroisoquinolin-6-yl)methyl)-2-((3-chloroquinolin-6-yl)methyl)isonicotinamide]
EC50: ≤ 100 nM

Cc1cnc2ccc(Cc3cc(C(=O)NCc4ccc5c(N)nccc5c4)ccn3)cc2c1 [Example 142, N-((1-aminoisoquinolin-6-yl)methyl)-2-((3-methylquinolin-6-yl)methyl)isonicotinamide]
EC50: ≤ 100 nM

Cc1cc(N)nc(C)c1CNC(=O)c1ccnc(Cc2cc(F)c3ncc(Cl)cc3c2)c1 [Example 89, N-(6-amino-2,4-dimethyl-pyridin-3-ylmethyl)-2-(3-chloro-8-fluoro-quinolin-6-ylmethyl)-isonicotinamide]
EC50: ≤ 100 nM

Cc1cnc2c(C(N)=O)cc(Cc3cc(C(=O)NCc4cc5c(Cl)c[nH]c5cc4F)ccn3)cc2c1 [Example 78, 6-((4-(((3-chloro-6-fluoro-1H-indol-5-yl)methyl)carbamoyl)pyridin-2-yl)methyl)-3-methylquinoline-8-carboxamide]
EC50: ≤ 100 nM

Cc1cc(N)nc(C)c1CNC(=O)c1ccnc(Cc2ccc3ncc(C(F)(F)F)cc3c2)c1 [Example 228, N-((6-amino-2,4-dimethylpyridin-3-yl)methyl)-2-((3-(trifluoromethyl)quinolin-6-yl)methyl)isonicotinamide]
EC50: ≤ 100 nM

Cc1cc(N)nc(C)c1CNC(=O)c1ccnc(Cc2ccc3ncc(Cl)cc3c2)c1 [Example 35, N-((6-amino-2,4-dimethylpyridin-3-yl)methyl)-2-((3-chloroquinolin-6-yl)methyl)isonicotinamide]
EC50: ≤ 100 nM

O=C(NCc1cnc2[nH]cc(Cl)c2c1)c1ccnc(Cc2ccc3ncc(C(F)(F)F)cc3c2)c1 [Example 231, N-((3-chloro-1H-pyrrolo[2,3-b]pyridin-5-yl)methyl)-2-((3-(trifluoromethyl)quinolin-6-yl)methyl)isonicotinamide]
EC50: 100 to 1000 nM

CS(=O)(=O)c1cc(Cc2cc(C(=O)NCc3cc4c(Cl)c[nH]c4cc3F)ccn2)cc2cc(Cl)cnc12 [Example 68, N-((3-chloro-6-fluoro-1H-indol-5-yl)methyl)-2-((3-chloro-8-(methylsulfonyl)quinolin-6-yl)methyl)isonicotinamide]
EC50: ≤ 100 nM

Cc1cc(N)nc(C)c1CNC(=O)c1ccnc(Cc2ccc3nc(C)c(Cl)cc3c2)c1 [Example 238, N-((6-amino-2,4-dimethylpyridin-3-yl)methyl)-2-((3-chloro-2-methylquinolin-6-yl)methyl)isonicotinamide]
EC50: ≤ 100 nM

Cc1cc(N)nc(C)c1CNC(=O)c1ccnc(Cc2cnc3ncc(Cl)cc3c2)c1 [Example 204, N-((6-amino-2,4-dimethylpyridin-3-yl)methyl)-2-((6-chloro-1,8-naphthyridin-3-yl)methyl)isonicotinamide]
EC50: ≤ 100 nM

Cc1nc(N)ccc1CNC(=O)c1ccnc(Cc2cc(C(C)(C)O)c3ncc(Cl)cc3c2)c1 [Example 220, N-((6-amino-2-methylpyridin-3-yl)methyl)-2-((3-chloro-8-(2-hydroxypropan-2-yl)quinolin-6-yl)methyl)isonicotinamide]
EC50: ≤ 100 nM

Cc1cnc2c(S(C)(=O)=O)cc(Cc3cc(C(=O)NCc4ccc5[nH]cc(Cl)c5c4F)ccn3)cc2c1 [Example 21, N-((3-chloro-4-fluoro-1H-indol-5-yl)methyl)-2-((3-methyl-8-(methylsulfonyl)quinolin-6-yl)methyl)isonicotinamide]
EC50: ≤ 100 nM

Cc1nc(N)ccc1CNC(=O)c1ccnc(Cc2cc(S(C)(=O)=O)c3ncc(Cl)cc3c2)c1 [Example 69, N-((6-amino-2-methylpyridin-3-yl)methyl)-2-((3-chloro-8-(methylsulfonyl)quinolin-6-yl)methyl)isonicotinamide]
EC50: ≤ 100 nM

Cc1cc(N)nc(C)c1CNC(=O)c1ccnc(Cc2cc3cc(Cl)cnc3cn2)c1 [Example 148, N-((6-amino-2,4-dimethylpyridin-3-yl)methyl)-2-((3-chloro-1,7-naphthyridin-6-yl)methyl)isonicotinamide]
EC50: ≤ 100 nM

Cc1cc(N)nc(C)c1CNC(=O)c1ccnc(Cc2cc(-c3nnn[nH]3)c3ncc(Cl)cc3c2)c1 [Example 272, N-((6-amino-2,4-dimethylpyridin-3-yl)methyl)-2-((3-chloro-8-(1H-tetrazol-5-yl)quinolin-6-yl)methyl)isonicotinamide]
EC50: 100 to 1000 nM

Cc1cc(N)nc(C)c1CNC(=O)c1cc(CN)nc(Cc2ccc3ncc(Cl)cc3c2)c1 [Example 211, N-((6-amino-2,4-dimethylpyridin-3-yl)methyl)-2-(aminomethyl)-6-((3-chloroquinolin-6-yl)methyl)isonicotinamide]
EC50: ≤ 100 nM

O=C(NCc1cc2c(Cl)c[nH]c2cc1F)c1ccnc(Cc2ccc3ncc(C(F)(F)F)cc3c2)c1 [Example 230, N-((3-chloro-6-fluoro-1H-indol-5-yl)methyl)-2-((3-(trifluoromethyl)quinolin-6-yl)methyl)isonicotinamide]
EC50: 100 to 1000 nM

Cc1cc(CN)nc(C)c1CNC(=O)c1ccnc(Cc2ccc3ncc(C(F)(F)F)cc3c2)c1 [Example 172, N-((6-(aminomethyl)-2,4-dimethylpyridin-3-yl)methyl)-2-((3-(trifluoromethyl)quinolin-6-yl)methyl)isonicotinamide]
EC50: ≤ 100 nM
